Data reported in publication PMC10467532, “Design, synthesis, and biological evaluation of thiazole/thiadiazole carboxamide scaffold-based derivatives as potential c-Met kinase inhibitors for cancer treatment” (Journal of Enzyme Inhibition and Medicinal Chemistry, 2023).

How the values were obtained:
A549 = test: MTT antiproliferative assay, A549; settings: Homo sapiens, A549, 48 h, read-out: IC50 A549
Protocol: (§1) MTT assay was used to determine the cytotoxic activity of target compounds against different cell lines. […] Then, the cells were treated with five doses of test compounds (pre-dissolved in DMSO), and 0.1% DMSO was used as a negative control. […] The results expressed as IC50 were the average of three determinations calculated by using the Bacus Laboratories Incorporated Slide Scanner (Bliss) software.

HUVEC = test: MTT cytotoxicity assay, normal HUVEC cells; settings: Homo sapiens, 48 h, read-out: IC50 HUVEC
Protocol: as §1

MKN-45 = test: MTT antiproliferative assay, MKN-45; settings: Homo sapiens, MKN-45, 48 h, read-out: IC50 MKN-45
Protocol: as §1

FHC = test: MTT cytotoxicity assay, normal FHC cells; settings: Homo sapiens, 48 h, read-out: IC50 FHC
Protocol: as §1

HT-29 = test: MTT antiproliferative assay, HT-29; settings: Homo sapiens, HT-29, 48 h, read-out: IC50 HT-29
Protocol: as §1

c-Met = target: T1, c-Met (Homo sapiens, UniProt P08581); test: In vitro c-Met enzymatic assay (HTRF); type: biochemical; settings: HTRF assay; mean ± SD, triplicate; read-out: IC50 against c-Met
T1 construct: purchased Invitrogen (Waltham, MA)
Protocol: Inhibition of target compounds on c-Met kinase activity was measured by using the homogeneous time-resolved fluorescence (HTRF) assay.
The tyrosine kinases inhibitory activities of target compounds were evaluated in 384-well microtiter plates using purified kinases purchased from Invitrogen (Waltham, MA) by homogeneous time-resolved fluorescence (HTRF) assay. The HTRF KinEASE TK kit was performed according to the instructions. After the kinases and test compounds were incubated at 25–30 °C for 5 min, the kinase reactions were initiated by addition of 39 μL of kinase reaction buffer solution and incubated at 25–30 °C for 30 min. The reactions were quenched by addition 10 µL mixed detection solution. […] The inhibition rate (%) was calculated using the following equation: inhibition rate = [(activity of enzyme with tested compound – min)/(max – min)] × 100 (max: the enzyme activity in the presence of enzyme, substrates and cofactors; min: the enzyme activity in the presence of substrates, cofactors and in the absence of enzyme). IC50 value was calculated from the inhibition curve using GraphPad Prism 5.0 software (La Jolla, CA).

MDA-MB-231 = test: MTT antiproliferative assay, MDA-MB-231; settings: Homo sapiens, MDA-MB-231, 48 h, read-out: IC50 MDA-MB-231
Protocol: as §1

T1 sequence (P08581 25-1390): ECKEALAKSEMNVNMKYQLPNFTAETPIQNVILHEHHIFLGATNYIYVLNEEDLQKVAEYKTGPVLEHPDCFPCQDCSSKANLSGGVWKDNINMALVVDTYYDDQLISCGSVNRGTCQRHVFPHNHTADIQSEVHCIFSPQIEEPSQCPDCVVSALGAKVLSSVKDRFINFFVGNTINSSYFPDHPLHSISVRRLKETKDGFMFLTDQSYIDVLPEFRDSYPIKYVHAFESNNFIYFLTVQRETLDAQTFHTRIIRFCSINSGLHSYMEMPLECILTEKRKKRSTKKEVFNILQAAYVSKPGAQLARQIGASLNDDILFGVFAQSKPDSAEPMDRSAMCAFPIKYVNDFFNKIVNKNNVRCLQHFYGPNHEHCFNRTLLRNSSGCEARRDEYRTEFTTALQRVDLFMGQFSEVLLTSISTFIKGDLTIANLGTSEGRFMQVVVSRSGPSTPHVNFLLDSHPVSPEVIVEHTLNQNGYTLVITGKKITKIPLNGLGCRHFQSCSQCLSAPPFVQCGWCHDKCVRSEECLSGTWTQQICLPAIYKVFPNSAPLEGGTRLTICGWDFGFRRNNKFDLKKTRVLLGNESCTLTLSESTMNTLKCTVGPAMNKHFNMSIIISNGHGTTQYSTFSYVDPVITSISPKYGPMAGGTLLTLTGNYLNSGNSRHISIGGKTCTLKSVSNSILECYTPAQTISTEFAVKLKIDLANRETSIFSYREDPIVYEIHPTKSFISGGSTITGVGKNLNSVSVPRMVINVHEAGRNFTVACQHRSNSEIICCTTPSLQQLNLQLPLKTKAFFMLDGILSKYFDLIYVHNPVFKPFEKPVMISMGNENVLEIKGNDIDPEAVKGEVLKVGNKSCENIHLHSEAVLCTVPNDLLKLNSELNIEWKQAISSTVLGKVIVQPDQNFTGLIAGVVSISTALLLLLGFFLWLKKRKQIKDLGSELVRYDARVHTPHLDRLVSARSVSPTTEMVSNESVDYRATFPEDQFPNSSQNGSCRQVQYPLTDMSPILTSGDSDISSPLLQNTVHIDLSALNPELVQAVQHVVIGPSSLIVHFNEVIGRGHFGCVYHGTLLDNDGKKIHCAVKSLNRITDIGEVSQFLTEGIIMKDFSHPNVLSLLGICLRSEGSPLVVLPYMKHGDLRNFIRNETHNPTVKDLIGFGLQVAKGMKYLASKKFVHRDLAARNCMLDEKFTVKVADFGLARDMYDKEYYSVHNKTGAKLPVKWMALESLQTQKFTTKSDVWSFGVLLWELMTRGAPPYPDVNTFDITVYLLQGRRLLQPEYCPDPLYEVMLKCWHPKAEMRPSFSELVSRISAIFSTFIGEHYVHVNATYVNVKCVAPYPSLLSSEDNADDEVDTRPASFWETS

SMILES | IC50 (A549) [µM] | IC50 (MKN-45) [µM] | melting point [°C] | IC50 (HT-29) [µM] | IC50 (c-Met) [µM] | IC50 (MDA-MB-231) [µM] | IC50 (HUVEC) [µM] | IC50 (FHC) [µM]
COc1cc2nccc(Oc3ccc(NC(=O)c4nc(-c5ccc(F)cc5)ns4)cc3)c2cc1OC [Compound 51b, N-(4-((6,7-Dimethoxyquinolin-4-yl)oxy)phenyl)-3-(4-fluorophenyl)-1,2,4-thiadiazole-5-carboxamide] | 22.5 ± 3.15 | 7.89 ± 1.35 | 113 to 115 | 26.5 ± 1.42 | 0.0501 ± 0.00514 | 38.6 ± 4.07 | > 100 | > 100
COc1cc2nccc(Oc3ccc(NC(=O)c4nnc(-c5ccccc5)s4)cc3)c2cc1OC [Compound 51c, N-(4-((6,7-Dimethoxyquinolin-4-yl)oxy)phenyl)-5-phenyl-1,3,4-thiadiazole-2-carboxamide] | 20.6 ± 1.96 | 6.94 ± 1.06 | 141 to 143 | 29.3 ± 3.85 | 0.0457 ± 0.00388 | 34.7 ± 2.58 | 53.5 ± 4.62 | 71.3 ± 5.25
COc1cc2nccc(Oc3ccc(NC(=O)c4nnc(-c5ccc(F)cc5)s4)cc3)c2cc1OC [Compound 51d, N-(4-((6,7-Dimethoxyquinolin-4-yl)oxy)phenyl)-5-(4-fluorophenyl)-1,3,4-thiadiazole-2-carboxamide] | 19 ± 2.46 | 6.65 ± 0.94 | 136 to 138 | 24.6 ± 1.87 | 0.0415 ± 0.00276 | 33.6 ± 4.35 | 52.4 ± 3.85 | 68.6 ± 4.83
COc1cc2nccc(Oc3ccc(NC(=O)c4nc(-c5ccccc5)cs4)cc3)c2cc1OC [Compound 51e, N-(4-((6,7-Dimethoxyquinolin-4-yl)oxy)phenyl)-4-phenylthiazole-2-carboxamide] | 16.6 ± 2.16 | 5.86 ± 0.93 | 63 to 65 | 21.8 ± 1.66 | 0.0345 ± 0.00465 | > 50 | 56.5 ± 4.81 | 64.5 ± 6.12
COc1cc2nccc(Oc3ccc(NC(=O)c4ncc(-c5ccccc5)s4)cc3)c2cc1OC [Compound 51g, N-(4-((6,7-Dimethoxyquinolin-4-yl)oxy)phenyl)-5-phenylthiazole-2-carboxamide] | 17.4 ± 2.23 | 6.21 ± 0.85 | 260 to 262 | 23.4 ± 1.58 | 0.0394 ± 0.00325 | 32.8 ± 2.23 | 48.4 ± 2.54 | 54.5 ± 3.25
COc1cc2nccc(Oc3ccc(NC(=O)c4ncc(-c5ccc(F)cc5)s4)cc3)c2cc1OC [Compound 51h, N-(4-((6,7-Dimethoxyquinolin-4-yl)oxy)phenyl)-5-(4-fluorophenyl)thiazole-2-carboxamide] | 16.8 ± 1.58 | 5.97 ± 0.98 | 252 to 254 | 22.7 ± 3.32 | 0.0354 ± 0.00503 | 34.2 ± 2.82 | 42.1 ± 4.35 | 50.2 ± 2.89
COc1cc2nccc(Oc3ccc(NC(=O)c4nc(-c5ccccc5)cs4)c(F)c3)c2cc1OC [Compound 51i, N-(4-((6,7-Dimethoxyquinolin-4-yl)oxy)-2-fluorophenyl)-4-phenylthiazole-2-carboxamide] | 15.6 ± 1.86 | 5.35 ± 0.84 | 112 to 114 | 22.9 ± 2.43 | 0.0312 ± 0.00416 | 35.5 ± 4.62 | 44.3 ± 5.64 | 60.2 ± 5.33
COc1cc2nccc(Oc3ccc(NC(=O)c4nc(-c5ccccc5)cs4)cc3F)c2cc1OC [Compound 51j, N-(4-((6,7-Dimethoxyquinolin-4-yl)oxy)-3-fluorophenyl)-4-phenylthiazole-2-carboxamide] | 13.8 ± 1.76 | 4.58 ± 0.75 | 90 to 92 | 19.6 ± 2.89 | 0.0295 ± 0.00342 | 32.3 ± 2.78 | 45.6 ± 5.12 | > 100
COc1cc2nccc(Oc3ccc(NC(=O)c4nc(-c5ccccc5)cs4)c(Cl)c3)c2cc1OC [Compound 51k, N-(2-Chloro-4-((6,7-dimethoxyquinolin-4-yl)oxy)phenyl)-4-phenylthiazole-2-carboxamide] | 14.5 ± 1.64 | 6.87 ± 0.86 | 201 to 203 | 23.4 ± 4.32 | 0.033 ± 0.00266 | 33.3 ± 4.21 | > 100 | > 100
COc1cc2nccc(Oc3ccc(NC(=O)c4nc(-c5ccccc5)cs4)c(C)c3)c2cc1OC [Compound 51m, N-(4-((6,7-Dimethoxyquinolin-4-yl)oxy)-2-methylphenyl)-4-phenylthiazole-2-carboxamide] | 14.1 ± 1.87 | 6.43 ± 0.76 | 209 to 211 | 22.3 ± 1.75 | 0.0398 ± 0.00547 | 35.2 ± 4.23 | 38.8 ± 3.55 | 49.6 ± 5.04

Compounds with a lower IC50 (A549), results first:

IC50 (A549) [µM] | IC50 (MKN-45) [µM] | melting point [°C] | IC50 (HT-29) [µM] | IC50 (c-Met) [µM] | IC50 (MDA-MB-231) [µM] | SMILES | IC50 (HUVEC) [µM] | IC50 (FHC) [µM]
13.2 ± 2.41 | 6.23 ± 0.72 | 146 to 148 | 20.9 ± 3.56 | 0.0319 ± 0.00451 | 32.1 ± 2.54 | COc1cc2nccc(Oc3ccc(NC(=O)c4nc(-c5ccccc5)cs4)cc3Cl)c2cc1OC [Compound 51l, N-(3-Chloro-4-((6,7-dimethoxyquinolin-4-yl)oxy)phenyl)-4-phenylthiazole-2-carboxamide] | 40.9 ± 2.32 | 51.6 ± 3.96
12.2 ± 1.63 | 4.23 ± 0.96 | 115 to 117 | 18.7 ± 3.13 | 0.0296 ± 0.00384 | 29.6 ± 3.54 | COc1cc2ncnc(Oc3ccc(NC(=O)c4nc(-c5ccccc5)cs4)cc3F)c2cc1OC [Compound 51o, N-(4-((6,7-Dimethoxyquinazolin-4-yl)oxy)-3-fluorophenyl)-4-phenylthiazole-2-carboxamide] | 36.6 ± 4.23 | 50.3 ± 3.58
9.83 ± 1.22 | 3.17 ± 0.84 | 188 to 190 | 15.2 ± 2.26 | 0.0247 ± 0.00195 | 28.1 ± 1.96 | COc1cc2ncnc(Oc3ccc(NC(=O)c4nc(-c5ccc(F)cc5)cs4)cc3F)c2cc1OC [Compound 51p, N-(4-((6,7-Dimethoxyquinazolin-4-yl)oxy)-3-fluorophenyl)-4-(4-fluorophenyl)thiazole-2-carboxamide] | 33.6 ± 2.68 | 46.4 ± 6.24
2.26 ± 0.68 | 0.35 ± 0.07 | 170 to 172 | 1.94 ± 0.65 | 0.00523 ± 0.00074 | 5.82 ± 0.73 | O=C(Nc1ccc(Oc2ccnc(Cl)c2)c(F)c1)c1nc(-c2ccc(F)c(F)c2)cs1 [Compound 51al, N-(4-((2-Chloropyridin-4-yl)oxy)-3-fluorophenyl)-4-(3,4-difluorophenyl)thiazole-2-carboxamide] | 6.14 ± 0.75 | 10.2 ± 1.65
1.32 ± 0.35 | 0.15 ± 0.07 | 156 to 158 | 0.94 ± 0.27 | 0.00373 ± 0.00062 | 4.65 ± 0.93 | O=C(Nc1ccc(Oc2ccnc(Cl)c2Cl)c(F)c1)c1nc(-c2ccc(F)c(F)c2)cs1 [Compound 51an, N-(4-((2,3-Dichloropyridin-4-yl)oxy)-3-fluorophenyl)-4-(3,4-difluorophenyl)thiazole-2-carboxamide] | 4.83 ± 0.69 | 9.54 ± 1.26
